Data published in the supplement of paper PMC10307832.

Tests used:
Experiment in all cases: relative viability (nuclei count vs DMSO), 5 days (fraction); higher = more cells survive
[1] = compound: CCN1C(=O)C2=CC(=C(N=C2N(C1=O)C3CC3)N)C(=O)N + CC(=O)c1c(C)c2cnc(Nc3ccc(N4CCNCC4)cn3)nc2n(C2CCCC2)c1=O [Palbociclib] (partner 0.5 µM)
Method in brief: (§1)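 For relative viability, nuclei counts in treated wells were divided by those in vehicle wells. Lung cancer cell lines had been pin-tool dosed in 1536-well plates the day after seeding and cultured for 5 days, then fixed and stained in one step (final 0.05% Triton X-100, 1% formaldehyde, 1 ug/ml Hoechst) and imaged at 4×. Doses were one drug alone or a fixed anchor-drug dose plus five library-drug doses (not always all listed) in √10 steps, and values are duplicate-plate medians.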

[2] = compound: CCN1C(=O)C2=CC(=C(N=C2N(C1=O)C3CC3)N)C(=O)N + CC(C)C[C@H](NC(=O)[C@H](Cc1ccccc1)NC(=O)c1cnccn1)B(O)O [Bortezomib] (partner 0.002 µM)
Method in brief: as §1

[3] = compound: CCN1C(=O)C2=CC(=C(N=C2N(C1=O)C3CC3)N)C(=O)N + COc1cc2c(Oc3ccc(NC(=O)C4(C(=O)Nc5ccc(F)cc5)CC4)cc3F)ccnc2cc1OCCCN1CCOCC1 [Foretinib] (partner 0.25 µM)
Method in brief: as §1

[4] = compound: CCN1C(=O)C2=CC(=C(N=C2N(C1=O)C3CC3)N)C(=O)N + Nc1nc2[nH]cc(CCc3ccc(C(=O)N[C@@H](CCC(=O)O)C(=O)O)cc3)c2c(=O)[nH]1 [Pemetrexed] (partner 0.2 µM)
Method in brief: as §1

[5] = compound: CCN1C(=O)C2=CC(=C(N=C2N(C1=O)C3CC3)N)C(=O)N + Nc1ncn([C@H]2C[C@H](O)[C@@H](CO)O2)c(=O)n1 [Decitabine] (partner 2 µM)
Method in brief: as §1

Cell Line | relative viability ([1]; first compound 0.253 µM) | relative viability ([1]; first compound 0.8 µM) | relative viability ([1]; first compound 2.53 µM) | relative viability ([1]; first compound 8 µM) | relative viability ([2]; first compound 0.253 µM) | relative viability ([2]; first compound 0.8 µM) | relative viability ([2]; first compound 2.53 µM) | relative viability ([2]; first compound 8 µM) | relative viability ([3]; first compound 0.253 µM) | relative viability ([3]; first compound 0.8 µM) | relative viability ([3]; first compound 2.53 µM) | relative viability ([3]; first compound 8 µM) | relative viability ([4]; first compound 0.253 µM) | relative viability ([4]; first compound 0.8 µM) | relative viability ([4]; first compound 2.53 µM) | relative viability ([4]; first compound 8 µM) | relative viability ([5]; first compound 0.253 µM) | relative viability ([5]; first compound 0.8 µM) | relative viability ([5]; first compound 2.53 µM) | relative viability ([5]; first compound 8 µM)
HCC-15 | 0.764 | 0.731 | 0.675 | 0.712 | 0.992 | 1.11 | 0.979 | 1 | 1.1 | 1.05 | 1.07 | 0.985 | 0.231 | 0.221 | 0.2 | 0.235 | 0.596 | 0.663 | 0.624 | 0.603
HCC-44 | 0.998 | 0.912 | 0.972 | 1 | 0.896 | 0.895 | 0.879 | 0.877 |  |  |  |  | 0.588 | 0.641 | 0.613 | 0.668 | 0.999 | 0.999 | 0.885 | 0.872
IA-LM |  |  |  |  | 0.826 | 0.702 | 0.807 | 0.817 | 1.21 | 1.03 | 0.963 | 1.44 |  |  |  |  |  |  |  | 
LK-2 | 0.705 | 0.565 | 0.683 | 0.974 |  |  |  |  | 1.03 | 1.11 | 1.05 | 1.6 | 0.3 | 0.286 | 0.303 | 0.301 | 0.249 | 0.31 | 0.317 | 0.277
NCI-H358 | 0.122 | 0.134 | 0.127 | 0.14 |  |  |  |  | 0.704 | 0.762 | 0.771 | 0.676 | 0.172 | 0.181 | 0.188 | 0.164 | 0.193 | 0.207 | 0.19 | 0.227
NCI-H522 | 0.954 | 0.966 | 0.794 | 1.1 |  |  |  |  |  |  |  |  | 1.1 | 0.976 | 0.792 | 0.926 | 0.56 | 0.73 | 0.748 | 0.723
NCI-H596 |  |  |  |  |  | 0.807 | 1.11 | 1.01 | 0.956 | 0.94 | 0.788 | 0.962 | 0.465 | 0.507 | 0.573 | 0.497 |  | 0.925 | 0.955 | 0.951
NCI-H727 | 0.642 | 0.616 | 0.605 | 0.553 | 0.806 | 0.843 | 0.805 | 0.875 | 1.06 | 0.889 | 0.888 | 1.23 |  |  |  |  | 0.882 | 0.842 | 0.802 | 0.676
NCI-H1395 | 0.707 | 0.694 | 0.603 | 0.578 |  |  |  |  | 1.01 | 0.868 | 0.952 | 0.991 | 0.922 | 0.811 | 0.979 | 0.816 | 0.698 | 0.75 | 0.707 | 0.609
NCI-H1563 |  |  |  |  | 0.919 | 0.871 | 0.83 | 0.681 | 0.901 | 0.926 | 0.933 | 1.01 | 0.762 | 0.799 | 0.965 | 0.742 |  |  |  | 
NCI-H1703 |  |  |  |  | 0.384 | 0.383 | 0.34 | 0.374 | 0.393 | 0.432 | 0.328 | 0.372 |  |  |  |  |  |  |  | 
NCI-H1792 | 0.674 | 0.631 | 0.668 | 0.653 | 0.983 | 0.861 | 1.03 | 1.06 |  |  |  |  | 0.733 | 0.77 | 0.911 | 0.909 | 0.652 | 0.54 | 0.494 | 0.576
NCI-H1793 | 0.258 | 0.322 | 0.27 | 0.3 |  |  |  |  |  | 0.612 | 0.575 | 0.679 | 0.915 | 0.925 | 0.805 | 0.861 | 0.527 | 0.6 | 0.531 | 0.546
NCI-H1944 | 0.421 | 0.324 | 0.33 | 0.365 |  |  |  |  | 0.976 | 0.91 | 0.843 | 0.949 | 0.64 | 0.589 | 0.615 | 0.624 | 0.485 | 0.423 | 0.393 | 0.434
NCI-H2170 | 0.385 | 0.389 | 0.395 | 0.363 |  |  |  |  | 1.02 | 1 | 0.954 | 0.989 | 0.271 | 0.289 | 0.28 | 0.251 | 0.495 | 0.488 | 0.462 | 0.404
NCI-H2228 | 0.73 | 0.683 | 0.866 | 0.811 | 1.03 | 1.01 | 1.12 | 1.24 | 0.95 | 0.982 | 0.82 | 0.839 | 0.35 | 0.464 | 0.336 | 0.372 |  |  |  | 
SK-MES-1 | 0.362 | 0.285 | 0.324 | 0.282 |  |  |  |  | 0.946 | 0.876 | 0.94 | 0.837 | 0.981 | 0.911 | 0.858 | 0.882 | 0.381 | 0.359 | 0.4 | 0.365
SW 900 | 0.551 | 0.558 | 0.521 | 0.669 |  |  |  |  | 1.03 | 0.996 | 0.837 | 1.03 | 0.462 | 0.517 | 0.52 | 0.473 | 0.347 | 0.511 | 0.49 | 0.443
